According to patent US20260223861A1, “NATURAL PESTICIDAL COMPOSITIONS AND METHODS OF CONTROLLING ARTHROPODS” (TERRAMERA, INC., priority 2023, published 2026):
Values joined by “and” are separate entries in the source; they are usually repeats but may differ in a detail not shown here. Equal entries are not always repeated.

Tested on: German cockroaches
Assay: Spraying compositions on German cockroaches, knock-down and mortality (dead incl. moribund) observed
Type: in vivo
Conditions: knocked-down and dead insects, concentrations w/w in water
Experimental: In the following in vitro examples, various compounds were combined and the resulting composition was tested for efficacy. Each composition was mixed using a magnetic stir bar at room temperature (21° C.), except as otherwise noted herein. […] Water-insoluble and/or -immiscible ingredients, such as wintergreen oil, geraniol, oleic acid, and Na oleate, were dissolved and mixed as a separate fraction (the water-insoluble fraction). The water-insoluble fraction was then mixed with the water-soluble fraction by gentle stirring. All tested compositions comprised the tested compounds in solution with water. Each composition was tested for efficacy by spraying the composition on German cockroaches and observing the number of knocked-down and dead (including moribund) insects twice, once at 5 minutes after spraying and once at 48 hours after spraying. Either such measure of knock-down and mortality can be important in certain contexts. For example, 5-minute knock-down and mortality can be important in consumer contexts, as efficacy is often assessed over a short interval in such contexts. Shorter intervals, such as 30 seconds or 1 minute, are also or alternatively sometimes used in such contexts. As another example, 48-hour knock-down and mortality can be important in agricultural or industrial contexts, as total reduction in pest pressure may be more readily assessed over longer periods in such contexts. […] Ingredients were also tested for efficacy on their own (in dilution in water to provide the same concentration of the ingredient as in the tested compositions) using the same testing procedure. An expected efficacy for each formulation was determined based on the ingredients' individual tested efficacies based on the Colby equation, as described in greater detail by Ferry, Nancy; Stanley, Bruce H.; and Armel, Gregory (2005). “DESIGN AND […] OF BIOLOGICAL ASSAYS OF MIXTURES,” Conference on Applied Statistics in Agriculture. https://doi.org/10.4148/2475-7772.1133. Compositions with efficacy greater than this expected efficacy were determined to show synergistic efficacy.

[1] = 5 minutes after spraying, sulfate
[2] = 48 hours after spraying, sulfate

Row | Structure (SMILES) | Observed Efficacy (5 minutes after spraying) | Observed Efficacy (48 hours after spraying) | also measured
1 | CCCCCCCC/C=C\CCCCCCCC(=O)O [Oleic Acid (20%), Oleic acid] | 5% and 0% | 5% and 0% | –
2 | CC(C)=CCC/C(C)=C/CO [Geraniol (5%), Geraniol] | 7% | 7% | –
3 | CC(C)=CCC/C(C)=C/CO [Geraniol (20%), Geraniol] | 5% | 5% | –
4 | CCCCOC(=O)C(C)O (stereo not shown) [Butyl Lactate (5%), Butyl lactate] | 13% | 13% | –
5 | CCCCOC(=O)C(C)O (stereo not shown) [Butyl Lactate (10%), Butyl lactate] | 7% | 7% | –
6 | CCCCOC(=O)C(C)O (stereo not shown) [Butyl Lactate (2.5%), Butyl lactate] | 0% | 0% | –
7 | CCCCCCCC/C=C\CCCCCCCC(=O)O [Oleic Acid (5%), Oleic acid] | 0% | 0% | –
8 | CCCCCCCC/C=C\CCCCCCCC(=O)OCC(O)CO (stereo not shown) [Glycerol Monooleate (1.25%), Glycerol monooleate] | 0% | 0% | –
9 | CCCCCCCCCCCCOS(=O)(=O)[O-].[Na+] [Sodium Lauryl Sulfate (10%), Sodium lauryl sulfate] | – | – | Observed Efficacy (5 minutes after spraying, listed as Sodium lauryl sulfate (10%), sulfate): 0%; Observed Efficacy [1]: 0%; Observed Efficacy (48 hours after spraying, listed as Sodium lauryl sulfate (10%), sulfate): 0%; Observed Efficacy [2]: 0%
10 | CCCCCCCCCCCCOS(=O)(=O)[O-].[Na+] [Sodium Lauryl Sulfate (1.25%), Sodium lauryl sulfate] | – | – | Observed Efficacy [1]: 0%; Observed Efficacy [2]: 0%
11 | CC(C)O [Isopropyl alcohol (10%), Isopropyl alcohol] | 0% | 0% | –
12 | CC(C)=CCC/C(C)=C/CO [Geraniol (2.5%), Geraniol] | 20% | 20% | –
13 | CC(C)O [Isopropyl alcohol (5%), Isopropyl alcohol] | 0% | 0% | –
14 | CCCCCCCCCCCCOS(=O)(=O)[O-].[Na+] [Sodium Lauryl Sulfate (5%), Sodium lauryl sulfate] | – | – | Observed Efficacy (5 minutes after spraying, listed as Sodium lauryl sulfate (5%), sulfate): 7%; Observed Efficacy [1]: 7%; Observed Efficacy (48 hours after spraying, listed as Sodium lauryl sulfate (5%), sulfate): 7%; Observed Efficacy [2]: 7%
15 | CCCCOC(=O)C(C)O (stereo not shown) [Butyl Lactate (20%), Butyl lactate] | 13% | 13% | –
16 | CC(C)=CCC/C(C)=C/CO [Geraniol (10%), Geraniol] | 27% | 27% | –
17 | CCCCCCCCCCCCOS(=O)(=O)[O-].[Na+] [Sodium Lauryl Sulfate (2.5%), Sodium lauryl sulfate] | – | – | Observed Efficacy [1]: 0%; Observed Efficacy [2]: 0%
18 | [Cl-].[Na+] [NaCl (2.5%), NaCl] | 0% | 0% | –
